# From US20120088688A1, “IN VITRO ASSAY FOR IDENTIFICATION OF ALLERGENIC PROTEINS” (BIOVATOR TECHNOLOGIES AB, priority 2005, published 2012)
# Where a name gives a salt, the structure may show the parent alone.
# Tested on: Mono Mac 6 cells
# Assay: Micro array gene expression profiling (HG_U95Av2 chip) of Mono Mac 6 cells following allergen treatment
# Assay type: cell-based, human
# Settings: for Number of up regulated genes: Mono Mac 6 cells
# Experimental: The cell line Mono Mac 6 (AstraZeneca Cell Storage and Retrieval, Alderley Park, UK) was cultivated in RPMI 1640 medium with 10 mM HEPES buffer (Gibco, UK), 2 mM L-glutamine, 9 μg/mL human insulin, 1.0 mM sodium pyruvate, 10% fetal bovine serum, 5.6 μl/mL glucose, 100 U/mL penicillin and 100 μg/ml streptomycin. Fresh medium for cultivation was added or changed frequently (every 2:nd or 3:rd day), maintaining a cell density of viable cells/mL between 0.5×10^6 and 1.0×10^6. The cell line was in suspension/loosely adherent and sub cultures were prepared when needed by scraping. The plates were cultivated in an inclined position at 37° C. and 5% CO2 in a Galaxy R (Lab Rum Klimat Ab, Sweden) incubator
# Cells were treated with four different allergens, according to table 2, in duplicate cultures. The test substances were all diluted in double distilled water. The duplicate cultures were treated at different exposure days. All treatments were 6 hours and control cells were left unexposed.
# 20 individual cultures with 500 000 cells per culture were treated identical for each substance. After 6 h exposure identical treated cells were harvest and pooled into a 50 ml Falcontube, pelleted at 540 g for 5 minutes in 7° C. […] The supernatant was removed and the cells were freeze-dried with liquid nitrogen and thereafter put into −152° C. freezer until further preparation.
# Experimental procedures were performed according to Gene Chip®Expression Analysis Technical Manual (rev1, 2001) with minor modifications as described. Total RNA was prepared from frozen cells, according to Qiagen Rneasy Mini kit (Qiagen/WVR, Sweden). 30 μg of total RNA was used for cDNA synthesis and in vitro transcript labeling with biotin was performed according to Enzo BioArray RNA Transcription Labeling Kit (Enzo, U.S.A). cRNA quality was analyzed on a Agilent Bioanalyser 2001 (Agilent Technologies, U.S.A) and the concentration was measured on a Nano Droop (Saveen Werner, Sweden). 15 μg of fragmented cRNA was added to the hybridization-cocktail and hybridized to the HG_U95Av2 chip (Affymetrix, U.S.A) for 16 h at 45° C. The arrays were washed and stained with biotinylated anti streptavidin antibodies according to the EukGE_W2v4 protocol (Affymetrix, U.S.A) in the fluid station (Affymetrix, U.S.A).
# Data obtained were analyzed using the MAS 5.0 model base. A detection call was calculated for all probe sets, representing if the transcript of a particular gene was present or absent, all absent genes were excluded from analysis.
# To verify outliers and trends in data exploratory analysis was made with principle component analysis (PCA). Statistic analysis was made using student's t-test. It weights the variance in individual groups with the variance in all groups. Student's t-test was used to test for statistical significance compared with control. The p-value obtained describes the probability of statistically finding a false positive probe set. Fold change (fc) represents the quotient between the two compared chip.
# The average signal value from all treated groups were compared with control signals.
# All probe sets with signal value<50 in all groups were excluded from analysis. […] The remaining probe sets were ranked after fc.
structure (smiles),measurement,setting,value
"CC1(C)S[C@@H]2[C@H](NC(=O)Cc3ccccc3)C(=O)N2[C@H]1C(=O)O [penicillin G, Benzylpenicillin sodium salt]",Number of up regulated genes,cut off fc >2,4
same,Number of up regulated genes,cut off fc >4,1
same,Number of up regulated genes,cut off fc >6,0
same,Number of up regulated genes,cut off fc >10,0
same,"vs ctrl fc, GPR15",gene GPR15,2.2
same,"vs ctrl fc, IFITM3",gene IFITM3,3.3
same,"vs ctrl fc, XK",gene XK,2.6
same,"vs ctrl fc, c 33.28 unnamed HERV-H protein mRNA","systematic name none, c 33.28 unnamed HERV-H protein mRNA",9.1
